Test results from patent US4138554A, “7-[D-α-(4-Hydroxy-1,5-naphthyridine-3-carboxamido)-α-phenyl (and p-hydroxyphenyl)acetamido]-3-carbamoyloxymethyl-3-cephem-4-carboxylic acids” (priority 1977, dated 1979).
Converted amounts (≈) assume the structure as drawn. Read-outs that look alike come from different tables or passages of the source.

Tested on: Pseudomonas aeruginosa
Test: MIC by agar dilution against 61 strains of Pseudomonas aeruginosa, secondary evaluation
Format: cell-based
Details: for MIC: Pseudomonas aeruginosa
Procedure: Minimum inhibitory concentrations (MIC) of BB-S520 were determined by serial two-fold agar dilution method using Steers' apparatus on Meuller-Hinton agar plate against 31 test organisms for the primary screening and also against 61 strains of Pseudomonas aeruginosa for the secondary evaluation. The results are shown in Table 1 and Table 2 along with those of BB-S514 and sulbenicillin.
Minimum inhibitory concentrations (MIC) of cephalosporins in the present study were determined by serial two-fold agar dilution method using Steers' apparatus on Mueller-Hinton agar plate against 31 test organisms for the primary screening and also against 61 strains of Pseudomonas aeruginosa for the secondary evaluation.

Compound: CCN1CCN(C(=O)NC(C(=O)N[C@@H]2C(=O)N3[C@@H]2SC(C)(C)[C@@H]3C(=O)O)c2ccccc2)C(=O)C1=O (stereo partly drawn) [T-1220]
- Rel. Act. (SBPC=100%) (61 strains of Pseudomonas aeruginosa, Table 7): 544%
- MIC (61 strains of Pseudomonas aeruginosa, Table 7, read-out: Geometric Mean of MIC): 4.3 µg/mL (≈ 8.31 µM)
- MIC (BBRI Pa-No. 1, D15, Table 7, read-out: MIC): 12.5 µg/mL (≈ 24.2 µM)
- MIC (BBRI Pa-No. 2, VA, Table 7, read-out: MIC): 3.1 µg/mL (≈ 5.99 µM)
- MIC (BBRI Pa-No. 3, 1449VA, Table 7, read-out: MIC): 1.6 µg/mL (≈ 3.09 µM)
- MIC (BBRI Pa-No. 4, H9 D113, Table 7, read-out: MIC): 3.1 µg/mL (≈ 5.99 µM)
- MIC (BBRI Pa-No. 5, N4865KC, Table 7, read-out: MIC): 1.6 µg/mL (≈ 3.09 µM)
- MIC (BBRI Pa-No. 6, No. 5, Table 7, read-out: MIC): 25 µg/mL (≈ 48.3 µM)
- MIC (BBRI Pa-No. 7, Table 7, read-out: MIC): 3.1 µg/mL (≈ 5.99 µM)
- MIC (BBRI Pa-No. 8, Table 7, read-out: MIC): 3.1 µg/mL (≈ 5.99 µM)
- MIC (BBRI Pa-No. 9, Yale, Table 7, read-out: MIC): 3.1 µg/mL (≈ 5.99 µM)
- MIC (BBRI Pa-No. 10, Table 7, read-out: MIC): > 100 µg/mL
- MIC (BBRI Pa-No. 11, Table 7, read-out: MIC): 3.1 µg/mL (≈ 5.99 µM)
- MIC (BBRI Pa-No. 12, Table 7, read-out: MIC): 6.3 µg/mL (≈ 12.2 µM)
- MIC (BBRI Pa-No. 14, Table 7, read-out: MIC): 1.6 µg/mL (≈ 3.09 µM)
- MIC (BBRI Pa-No. 15, Table 7, read-out: MIC): 6.3 µg/mL (≈ 12.2 µM)
- MIC (BBRI Pa-No. 16, No. 130, Table 7, read-out: MIC): 0.8 µg/mL (≈ 1.55 µM)
- MIC (BBRI Pa-No. 17, H6 D114, Table 7, read-out: MIC): 25 µg/mL (≈ 48.3 µM)
- MIC (BBRI Pa-No. 18, H8 D121, Table 7, read-out: MIC): 50 µg/mL (≈ 96.6 µM)
- MIC (BBRI Pa-No. 19, Table 7, read-out: MIC): 0.8 µg/mL (≈ 1.55 µM)
- MIC (BBRI Pa-No. 20, Table 7, read-out: MIC): 6.3 µg/mL (≈ 12.2 µM)
- MIC (BBRI Pa-No. 21, Table 7, read-out: MIC): 3.1 µg/mL (≈ 5.99 µM)
- MIC (BBRI Pa-No. 23, Table 7, read-out: MIC): 3.1 µg/mL (≈ 5.99 µM)
- MIC (BBRI Pa-No. 24, Table 7, read-out: MIC): > 100 µg/mL
- MIC (BBRI Pa-No. 25, Table 7, read-out: MIC): 1.6 µg/mL (≈ 3.09 µM)
- MIC (BBRI Pa-No. 26, Ps32, Table 7, read-out: MIC): 1.6 µg/mL (≈ 3.09 µM)
- MIC (BBRI Pa-No. 28, CPH1C527/72, Table 7, read-out: MIC): 6.3 µg/mL (≈ 12.2 µM)
- MIC (BBRI Pa-No. 29, D122, Table 7, read-out: MIC): 3.1 µg/mL (≈ 5.99 µM)
- MIC (BBRI Pa-No. 30, Table 7, read-out: MIC): 6.3 µg/mL (≈ 12.2 µM)
- MIC (BBRI Pa-No. 31, Table 7, read-out: MIC): 1.6 µg/mL (≈ 3.09 µM)
- MIC (BBRI Pa-No. 32, Table 7, read-out: MIC): 3.1 µg/mL (≈ 5.99 µM)
- MIC (BBRI Pa-No. 33, Table 7, read-out: MIC): 6.3 µg/mL (≈ 12.2 µM)
- MIC (BBRI Pa-No. 34, Table 7, read-out: MIC): 3.1 µg/mL (≈ 5.99 µM)
- MIC (BBRI Pa-No. 35, Table 7, read-out: MIC): 6.3 µg/mL (≈ 12.2 µM)
- MIC (BBRI Pa-No. 36, Table 7, read-out: MIC): 0.4 µg/mL (≈ 0.773 µM)
- MIC (BBRI Pa-No. 37, Table 7, read-out: MIC): 3.1 µg/mL (≈ 5.99 µM)
- MIC (BBRI Pa-No. 38, Table 7, read-out: MIC): 6.3 µg/mL (≈ 12.2 µM)
- MIC (BBRI Pa-No. 39, Table 7, read-out: MIC): 1.6 µg/mL (≈ 3.09 µM)
- MIC (BBRI Pa-No. 41, Table 7, read-out: MIC): 3.1 µg/mL (≈ 5.99 µM)
- MIC (BBRI Pa-No. 42, Table 7, read-out: MIC): 25 µg/mL (≈ 48.3 µM)
- MIC (BBRI Pa-No. 43, Table 7, read-out: MIC): 6.3 µg/mL (≈ 12.2 µM)
- MIC (BBRI Pa-No. 44 (unnamed strain), Table 7, read-out: MIC): 3.1 µg/mL (≈ 5.99 µM)
- MIC (BBRI Pa-No. 51, Table 7, read-out: MIC): 3.1 µg/mL (≈ 5.99 µM)
- MIC (BBRI Pa-No. 52, Table 7, read-out: MIC): 3.1 µg/mL (≈ 5.99 µM)
- MIC (BBRI Pa-No. 53, Table 7, read-out: MIC): 3.1 µg/mL (≈ 5.99 µM)
- MIC (BBRI Pa-No. 54, Table 7, read-out: MIC): 3.1 µg/mL (≈ 5.99 µM)
- MIC (BBRI Pa-No. 55, Table 7, read-out: MIC): 3.1 µg/mL (≈ 5.99 µM)
- MIC (BBRI Pa-No. 56, Table 7, read-out: MIC): 3.1 µg/mL (≈ 5.99 µM)
- MIC (BBRI Pa-No. 57, Table 7, read-out: MIC): 6.3 µg/mL (≈ 12.2 µM)
- MIC (BBRI Pa-No. 58, Table 7, read-out: MIC): 6.3 µg/mL (≈ 12.2 µM)
- MIC (BBRI Pa-No. 59, Table 7, read-out: MIC): 1.6 µg/mL (≈ 3.09 µM)
- MIC (BBRI Pa-No. 60, Table 7, read-out: MIC): 3.1 µg/mL (≈ 5.99 µM)
- MIC (BBRI Pa-No. 61, Table 7, read-out: MIC): 3.1 µg/mL (≈ 5.99 µM)
- MIC (BBRI Pa-No. 62, Table 7, read-out: MIC): 12.5 µg/mL (≈ 24.2 µM)
- MIC (BBRI Pa-No. 64, Table 7, read-out: MIC): 3.1 µg/mL (≈ 5.99 µM)
- MIC (BBRI Pa-No. 65, Table 7, read-out: MIC): 1.6 µg/mL (≈ 3.09 µM)
- MIC (BBRI Pa-No. 66, Table 7, read-out: MIC): 3.1 µg/mL (≈ 5.99 µM)
- MIC (BBRI Pa-No. 67, Table 7, read-out: MIC): 6.3 µg/mL (≈ 12.2 µM)
- MIC (BBRI Pa-No. 68, Table 7, read-out: MIC): 6.3 µg/mL (≈ 12.2 µM)
- MIC (BBRI Pa-No. 69, Table 7, read-out: MIC): 6.3 µg/mL (≈ 12.2 µM)
- MIC (BBRI Pa-No. 70, K-Ps102(CR-102), Table 7, read-out: MIC): 3.1 µg/mL (≈ 5.99 µM)
- MIC (GN315, BBRI Pa-No. 27, GN315, Table 7, read-out: MIC): 3.1 µg/mL (≈ 5.99 µM)
- MIC (GN4925, BBRI Pa-No. 44, GN4925, Table 7, read-out: MIC): 6.3 µg/mL (≈ 12.2 µM)
